Results reported in patent US20080286337A1, “Method of treating a disease in an eye using a scleral lens” (Boston Foundation for Sight, priority 2007, published 2008).
Read-outs that look alike come from different tables or passages of the source.

Legend:
[1] = system: corneal neovascularization; assay: Topical AVASTIN in the scleral lens drug delivery system to treat corneal neovascularization; type: in vivo
Text: This study using AVASTIN® off-label, topically, to treat corneal neovascularization was repeated using the scleral lens drug delivery system. […] This therapeutic effect was achieved without BAK. Instead, the expanded pre-corneal tear film of the scleral lens drug delivery system provided adequate bioavailability of the drug without exposing the cornea to BAK.

[2] = system: corneal neovascularization; details: solution of 1% AVASTIN and 0.01% BAK, one drop, four times per day for at least thirty days; no scleral lens; cited from earlier work

For bevacizumab [AVASTIN®], the “therapeutic effect on corneal neovascularization” value ([1]; one drop of 1% AVASTIN added to expanded pre-corneal tear film of artificial tears in a scleral lens twice per day, without BAK) was “achieved a therapeutic effect by thirty days”, the “continued benefit after initial therapeutic effect” value ([1]; same regimen, the sixty days following the first thirty days) was “continued benefit over the subsequent sixty days” and the “regression of corneal neovascularization (clinical photos, FIG. 5)” value ([1]; scleral lens drug delivery system) was “regression of corneal neovascularization”. For the same substance, the “therapeutic effect on corneal neovascularization” value [2] was “Therapeutic effect was reported”.
